Test results reported in patent publication US20240415752A1, “A personal care composition comprising vitamin K2 and hydroxystearic acid” (Conopco, Inc., d/b/a UNILEVER, priority 2021, published 2024).

Tested on: Normal human epidermal melanocytes (NHEM)
Assay: Melanin inhibition rate in UVB-irradiated melanocytes
Type: cell-based
Settings: for Melanin inhibition rate (% inhibition against UV): NHEM, UVB 14 mJ/cm^2 every 24 h, 72 hours treatment, active concentration (wt %) as in table, melanin normalized to relative cell viability; for Boost of efficacy of Vitamin K2 (melanin inhibition), in words: combination with Encap MK7 (0.0024%) in NHEM
Procedure: Effect of actives like 12HSA, 4-HR (4-hexyl resorcinol) and Encap MK7 (encapsulated Vitamin K2 of the MK-7 type) were tested individually and in combination. The protocol for the invitro assay is summarized below:
Normal human epidermal melanocytes (NHEM) (Biocell, Xi'an, China) were grown in melanocyte growth medium (MGM) with human melanocyte growth supplement (both from Promocell, Germany). NHEM cells were seeded at a density of 7×10^4 cells in 2 mL MGM/well in 6-well plates and incubated for 24 hours in an incubator at 37° C. with 5% CO2. When reaching 50% confluency, cells were irradiated with UVB at 14 mJ/cm^2 and after UV irradiation, media was replaced with fresh media containing test materials. Every 24 hours in the following 72 hours, the cells were irradiated with UVB again, and the treatment were refreshed.
At the end of the 72 hours incubation period, cell viability was determined using the Alamar Blue method. Briefly, cells were washed twice with phosphate buffered saline (PBS) solution. Freshly prepared 10% Alamar Blue working solution was added into each well including the blank control wells without cells. Plates were incubated for 1 hour at 37° C. in the CO2 incubator. The Alamar Blue solution was then transferred to a 96-well plate to check fluorescence intensity at Ex/Em 530 nm/590 nm using a fluorescent plate reader.
After cell viability evaluation, cells were further washed with PBS for twice and the cells were detached with 0.25% trypsin and collected with centrifugation. The cell pellet was added with a mixed solution (H2O:EtOH:Et2O=2:5:5 v/v) and the mixture was vortexed and left stand still for 30 min. Then the mixture was centrifuged at 1000 r/min for 10 min. The lower fraction was collected and further extracted with a solution containing 10% (v/v) DMSO and 1 M NaOH and incubated at 80° C. in a water bath for 40 minutes. Melanin standard solution was prepared in similarly by adding the same DMSO/NaOH mixed solution to the commercially sourced melanin and incubated at 80° C. for 40 minutes. The extracted melanin and the serially diluted melanin standard solution was then transferred to a 96-well plate and the absorbance at 405 nm was detected using a plate reader. The melanin content was calculated from the melanin standard curve. The melanin concentrations (μg/mL) were then normalized to the relative cell viability. The melanin inhibition rates were calculated using the following equation.

CCCCCCC(O)CCCCCCCCCCC(=O)O (stereo not shown) [A, 12-hydroxystearic acid]
Melanin inhibition rate (% inhibition against UV): 25.3% | Boost of efficacy of Vitamin K2 (melanin inhibition), in words: able to boost efficacy of Vitamin K2

CCCCCCc1ccc(O)cc1O [C, 4-hexyl resorcinol]
Melanin inhibition rate (% inhibition against UV): 38.5% | Boost of efficacy of Vitamin K2 (melanin inhibition), in words: does not do so
